# Several values for one entry are separate records, joined by “and”; a condition that tells them apart may be missing. Identical values can stand only once.
# Key:
# [1] = system: CA, Lyo, Myo, BRD4-BD1, KRas G12D, STAT5B-NTD; test: Intact MS labeling compared over all protein targets; format: binding; details: for Labeling of the other protein targets (vs. preferred target): each of the other targets
# Experimental: Using a plate-based format with one fragment per well, each fragment was incubated with the target proteins for 15 min to allow for the formation of non-covalent interactions. The plate was then irradiated at 302 or 365 nm for 10 min to enable the bound fragments to crosslink to the protein[26]. Finally, the results were directly analyzed from the plate using intact protein mass spectrometry by observing the mass additions that correspond to successful labeling (Fig. 2c, for labeling % values see Supplementary data). The library was first characterized against three benchmark proteins like carbonic anhydrase (CA), lysozyme (Lyo), and myoglobin (Myo).
# The PhP library was screened against BRD4-BD1 and KRas^G12D as follows. Using a Labcyte Echo® 555 Liquid Handler, 150 nL of fragment solution (20 mM) was transferred into a Greiner 384 low-volume plate (white) to prepare the probe plate. The probe plate was placed on ice. 15 μL of protein stock solution (1 μM BRD4-BD1 (GSK/GenScript) or KRas^G12D (GSK/GenScript) in PBS buffer) was dispensed into wells containing fragments. The plate was left on ice for 15 min for incubation, then irradiated at 302 nm for 10 min, and centrifuged (1000 rpm, 1 min) to remove any bubbles. The plate was then analyzed by LCMS-TOF mass spectrometry (Agilent 1200 series liquid chromatography with Agilent Bio-HPLC PLRP-S (1000 Å, 5 µm × 50 mm × 1.0 mm, PL1312-1502) reverse phase HPLC column at 70 °C equipped with an Agilent G6224 time-of-flight (ToF), see Supplementary Note 2 for the full protocols). The deconvoluted spectra were analyzed using R Studio software.
# During the analysis, the column temperature was maintained at a constant 60 °C, and a sample volume of 3 µL was injected for each analysis. Data acquisition was conducted in positive ion mode within the m/z 100–2000 (mass-to-charge ratio) range. For the full protocol and spectra of the hits, see Supplementary Note 2.
# BRD4-BD1 = system: T1, BRD4-BD1; test: Intact MS photoaffinity labeling screen, BRD4-BD1 (302 nm, LCMS-TOF); format: binding; details: for MS labeling percentage, BRD4: BRD4-BD1, 302 nm 10 min
# T1 construct: screened the PhP library against the first bromodomain of BRD4 (BRD4-BD1); purchased GSK/GenScript
# Summary of the method: (§1)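 Labeling detected as mass additions in deconvoluted intact-protein LCMS-TOF spectra. Protein at 1 μM in PBS was first mixed with one fragment per well on ice for 15 min, followed by 10 min UV exposure at 302 nm.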
# [2] = system: carbonic anhydrase II (CA); test: Intact protein MS photoaffinity labeling screen, carbonic anhydrase; format: binding; details: intact protein MS after 10 min irradiation
# Summary of the method: (§2)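 Fragments tested one per well, each incubated 15 min with protein to form non-covalent complexes before photo-crosslinking. Labeling read directly by intact protein MS as mass additions matching fragment adducts, expressed as labeling %.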
# STAT5B-NTD [3] = system: T2, STAT5B-NTD; test: Intact MS photoaffinity labeling screen, STAT5B-NTD (365 nm, UHPLC-MS); format: binding;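 on MS labeling percentage, STAT5B: 0.17 µL of 100 mM DMSO fragment stock added to the protein sample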
# T2 construct: His-SUMO (N, cleaved yes); made in house; host or cells: E. coli BL21 RILP
# Summary of the method: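 UV irradiation at 365 nm for 10 min at 4 °C. Labeling read by intact-protein UHPLC-MS, positive ion mode, m/z 100–2000.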
# lysozyme (Lyo) = test: Intact protein MS photoaffinity labeling screen, lysozyme; format: binding; details: intact protein MS after 10 min irradiation
# Summary of the method: as §2
# STAT5B-NTD [4] = system: T2, STAT5B-NTD; test: Intact MS labeling screen, STAT5B-NTD conjugated with photocatalyst Ir-G2-PEG3-COOH (450 nm); format: binding; details: 450 nm 10 min;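 further: 0.14 µL of 100 mM DMSO fragment stock added to the conjugate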
# Summary of the method: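 Ir-G2-PEG3-COOH photocatalyst (10 eq) activated 30 min with EDC/NHS/BOP, then conjugated to STAT5B-NTD (7 µM) overnight at RT or 1 h at 37 °C in dark. PhP added, 1 h dark, then 450 nm irradiation 10 min at 4 °C; labeling read by intact LC-MS, positive ion mode, m/z 100–2000.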
# KRas^G12D = system: T3, KRas^G12D; test: Intact MS photoaffinity labeling screen, KRas G12D (302 nm, LCMS-TOF); format: binding; details: for MS labeling percentage, KRas: KRas G12D, 302 nm 10 min
# T3 construct: purchased GSK/GenScript
# Summary of the method: as §1
# myoglobin (Myo) = test: Intact protein MS photoaffinity labeling screen, myoglobin; format: binding; details: intact protein MS after 10 min irradiation
# Summary of the method: as §2
# MV4-11 cells = test: CellTiter-Blue cell viability assay, MV4-11; format: cell-based; details: Homo sapiens, MV4-11, 72 h
# Experimental: MV4-11 and MOLM-13 cell lines were purchased from DSMZ (Braunschweig, Germany), and grown at 37 °C and 5% CO2 in RPMI 1640 medium (Gibco^TM, Thermo Fisher Scientific). Media were supplemented with 10% fetal calf serum (FCS), 10 U/mL penicillin, 10 µg/mL streptomycin and 2 mM L-glutamine (all Gibco^TM, Thermo Fisher Scientific).
# To determine the IC50 of the selected compounds on the cell lines, CellTiter-Blue® cell viability assay (Promega) was performed. For this, cells were seeded in 96-well flat bottom plates at a cell density of 10,000 cells/well. Cells were treated in triplicates with the compound of interest at various concentrations or with 10 μM Bortezomib (S1013; Selleck Chemicals, Houston, TX, USA) as a positive control. Cell viability of treated cell lines was measured using CellTiter-Blue® after 72 h incubation. Plates were measured using a GloMax® plate reader (Promega) and IC50 values were determined by non-linear regression using the GraphPad Prism 9.1.1 (GraphPad Software, Inc.) and the data are reported as mean values ± SEM.
# [5] = sheet PhP, experimental hit status flag given as 0 or 1
# [6] = PhP library sheet "PhP", binary flag printed as 0 or 1, key not given
"MS labeling percentage, CA [2]",IC50 (MV4-11 cells),Structure (SMILES),Labeling efficiency over all protein targets (mean ± spread) ([1]; over all protein targets),"MS labeling percentage, BRD4 (BRD4-BD1)",BRD4-BD1 (experimental hit status) (BRD4-BD1; [5]),"MS labeling percentage, STAT5B (STAT5B-NTD [3]; STAT5B-NTD, 365 nm 10 min, no photocatalyst)",STAT5B-NTD (experimental hit status) (STAT5B-NTD [3]; [5]),"MS labeling percentage, Lyo (lysozyme (Lyo))","MS labeling percentage, STAT5B+photocat (STAT5B-NTD [4])","MS labeling percentage, KRas (KRas^G12D)",KRAS-G12D (experimental hit status) (KRas^G12D; [5]),"MS labeling percentage, Myo (myoglobin (Myo))",Labeling of the other protein targets (vs. preferred target) [1],BRD4-BD1 (experimental hit status) (BRD4-BD1; [6]),STAT5B-NTD (experimental hit status) (STAT5B-NTD [3]; [6]),KRAS-G12D (experimental hit status) (KRas^G12D; [6])
0%,56.6 µM,"CC1(CCC(=O)NCCc2csc(-c3ccccc3)n2)N=N1 [PhP097, N1=NC1(C)CCC(=O)NCCc2csc(n2)-c3ccccc3]",,0.5%,,,,1.8%,4.2%,0.2%,,0.1%,> 3% and < 3%,0,1,0
0.3%,76.2 µM,"Cc1[nH]c2ccccc2c1SCCNC(=O)CCC1(C)N=N1 [PhP065, c1cccc(c12)c(c(C)[nH]2)SCCNC(=O)CCC3(C)N=N3]",,,0,,1,2.6%,11.2%,0.2%,0,0.1%,> 3% and < 3%,,,

Structure (SMILES),"MS labeling percentage, CA [2]",IC50 (MV4-11 cells),Labeling efficiency over all protein targets (mean ± spread) ([1]; over all protein targets),"MS labeling percentage, BRD4 (BRD4-BD1)",BRD4-BD1 (experimental hit status) (BRD4-BD1; [5]),"MS labeling percentage, STAT5B (STAT5B-NTD [3]; STAT5B-NTD, 365 nm 10 min, no photocatalyst)",STAT5B-NTD (experimental hit status) (STAT5B-NTD [3]; [5]),"MS labeling percentage, Lyo (lysozyme (Lyo))","MS labeling percentage, STAT5B+photocat (STAT5B-NTD [4])","MS labeling percentage, KRas (KRas^G12D)",KRAS-G12D (experimental hit status) (KRas^G12D; [5]),"MS labeling percentage, Myo (myoglobin (Myo))",Labeling of the other protein targets (vs. preferred target) [1],BRD4-BD1 (experimental hit status) (BRD4-BD1; [6]),STAT5B-NTD (experimental hit status) (STAT5B-NTD [3]; [6]),KRAS-G12D (experimental hit status) (KRas^G12D; [6])
"Cc1ncc(CO)c(CNC(=O)CCC2(C)N=N2)c1O [PhP072, Cc1ncc(CO)c(c1O)CNC(=O)CCC2(C)N=N2]",7.7%,,4.4 ± 4.3%,2.2%,1,0%,0,1%,3.3%,12.2%,1,3.3%,,,,
